The values that follow come from ChEMBL document CHEMBL1150567, “Three new phenolic compounds from a manipulated plant cell culture, Mirabilis jalapa” (J Nat Prod, 2001).

As a reminder, the IC50 is the concentration at which inhibition is half-maximal. Lower therefore signals inhibition by little substance.

Experiment [1] relates to Candida albicans. As to the kind of experiment: Antifungal activity against MDR knockout Candida albicans DSY1024 after 24 hrs by XTT assay. The settings on record: DSY1024, 24 h. The class given is functional, organism-based. (In general: Formazan colour is commonly taken as a measure of viable cells.)
Experiment [2] has as its system Candida albicans. As to the kind of experiment: Antifungal activity against wild type Candida albicans SC5314 after 24 hrs by XTT assay. The class given is functional, organism-based. The settings on record: SC5314, 24 h.

Structures are written as SMILES. ≈ marks a conversion by molar mass, not a printed value. Where only a bound is given, the exact number is not on record here.

In the case of `COc1cc2c(c(O)c1C)C(=O)[C@@]1(O)c3cccc(O)c3O[C@@H](OC)[C@@H]1O2`, the IC50 with Candida albicans [1] and with Candida albicans [2] was more than 200 µg/mL in each case.
`COc1ccccc1-c1coc2cc(O)c(C)c(O)c2c1=O`: the values for the IC50 in the experiment with Candida albicans [1] and in the experiment on Candida albicans [2] were 25 µg/mL (≈ 83.8 µM) and 16 µg/mL (≈ 53.6 µM), respectively.
The matching figures for `COc1cc2oc3c(c(=O)c2c(O)c1C)-c1cccc(O)c1OC3O` (stereo unspecified) [9-O-METHYL-4-HYDROXYBOERAVINONE B]: 48 µg/mL (≈ 140 µM) and more than 200 µg/mL.
The matching figures for `C[C@@H]1[C@H](O)[C@@H](C)/C=C/C=C/C=C/C=C/C=C/C=C/C=C/[C@H](O[C@@H]2O[C@H](C)[C@@H](O)[C@H](N)[C@@H]2O)C[C@@H]2O[C@](O)(C[C@@H](O)C[C@@H](O)[C@H](O)CC[C@@H](O)C[C@@H](O)CC(=O)O[C@H]1C)C[C@H](O)[C@H]2C(=O)O` [AMPHOTERICIN B]: 0.19 µg/mL (≈ 0.206 µM) and 0.15 µg/mL (≈ 0.162 µM).
For `COc1ccc(-c2coc3cc(O)cc(O)c3c2=O)cc1` [BIOCHANIN], the IC50 in the experiment with Candida albicans [1] and in the experiment on Candida albicans [2] was more than 100 µg/mL each time.
`O=c1c(-c2ccc(O)cc2)coc2cc(O)ccc12` [DAIDZEIN]: the IC50 in the experiment on Candida albicans [1] and in the experiment on Candida albicans [2] was more than 100 µg/mL each time.
For the compound `OC(Cn1cncn1)(Cn1cncn1)c1ccc(F)cc1F` [FLUCONAZOLE], the half-inhibitory concentration (IC50) in the experiment on Candida albicans [1] amounted to 6.7 µg/mL (≈ 21.9 µM); in the experiment on Candida albicans [2], 0.18 µg/mL (≈ 0.588 µM).
Take `O=c1c(-c2ccc(O)cc2)coc2cc(O)cc(O)c12` [GENISTEIN]: the IC50 in the experiment with Candida albicans [1] and in the experiment on Candida albicans [2] was more than 100 µg/mL throughout.
